Patent US11453683B1, “KRas G12D inhibitors” (Mirati Therapeutics, Inc., priority 2019, dated 2022)

System: KRas G12D-mediated phosphorylation of ERK
Experiment: Inhibition of KRas G12D-mediated phosphorylation of ERK in AGS cells
Format: cell-based
Settings: Homo sapiens; AGS cells expressing G12D, 3 hours, phospho-ERK normalized to GAPDH
Outline: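 In-cell Western: p-ERK Thr202/Tyr204 signal over GAPDH, as % of DMSO control, with IC50 from a 4-parameter curve. AGS cells seeded 40,000/well for 12-14 h, exposed to compound 3 h at 0.5% DMSO final, then formaldehyde-fixed and methanol-permeabilized.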

| SMILES | IC50 [µM] |
| --- | --- |
| CO[C@H]1CN2CCC[C@]2(COc2nc(N3CC4CCC(C3)N4)c3cnc(-c4cccc5cccc(Cl)c45)c(F)c3n2)C1 [Example 225, 4-((1R,5S)-3,8-diazabicyclo[3.2.1]octan-3-yl)-7-(8-chloronaphthalen-1-yl)-8-fluoro-2-((2-methoxytetrahydro-1H-pyrrolizin-7a(5H)-yl)methoxy)pyrido[4,3-d]pyrimidine bis-2,2,2-trifluoroacetate] | 3.06 |
| CN(C)C1CN(c2nc(N3C[C@H]4CC[C@@H](C3)N4)c3cnc(-c4cc(O)cc5ccccc45)c(F)c3n2)C1 [Example 120, 4-(4-((1R,5S)-3,8-diazabicyclo[3.2.1]octan-3-yl)-2-(3-(dimethylamino)azetidin-1-yl)-8-fluoropyrido[4,3-d]pyrimidin-7-yl)naphthalen-2-ol bis(2,2,2-trifluoroacetate)] | 2.09 |
| Fc1c(-c2cccc3cccc(OC(F)F)c23)ncc2c(N3C[C@H]4CC[C@@H](C3)N4)nc(OCC34CCCN3CCC4)nc12 [Example 346, 4-((1R,5S)-3,8-diazabicyclo[3.2.1]octan-3-yl)-7-(8-(difluoromethoxy)naphthalen-1-yl)-8-fluoro-2-((tetrahydro-1H-pyrrolizin-7a(5H)-yl)methoxy)pyrido[4,3-d]pyrimidine] | 1.35 |
| COc1cccc2cccc(-c3ncc4c(N5C[C@H]6CC[C@@H](C5)N6)nc(OCC56CCCN5CCC6)nc4c3F)c12 [Example 236, 4-((1R,5S)-3,8-diazabicyclo[3.2.1]octan-3-yl)-8-fluoro-2-((hexahydro-1H-pyrrolizin-7a-yl)methoxy)-7-(8-methoxynaphthalen-1-yl)pyrido[4,3-d]pyrimidine] | 2.63 |
| CS(=O)(=O)NC[C@H]1CC[C@@]2(COc3nc(N4C[C@H]5CC[C@@H](C4)N5)c4cnc(-c5cccc6cccc(Cl)c56)c(F)c4n3)CCCN12 [Example 420, N-(((3R,7aR)-7a-(((4-((1R,5S)-3,8-diazabicyclo[3.2.1]octan-3-yl)-7-(8-chloronaphthalen-1-yl)-8-fluoropyrido[4,3-d]pyrimidin-2-yl)oxy)methyl)hexahydro-1H-pyrrolizin-3-yl)methyl)methanesulfonamide] | 7.82 |
| CO[C@@H]1C[C@@H](COc2nc(N3C[C@H]4CC[C@@H](C3)N4)c3cnc(-c4cccc5cccc(Cl)c45)c(F)c3n2)N(C)C1 [Example 34, 4-((1R,5S)-3,8-diazabicyclo[3.2.1]octan-3-yl)-7-(8-chloronaphthalen-1-yl)-8-fluoro-2-(((2S,4R)-4-methoxy-1-methylpyrrolidin-2-yl)methoxy)pyrido[4,3-d]pyrimidine] | 4.21 |
| C#Cc1c(F)ccc2cccc(-c3ncc4c(N5C[C@H]6CC[C@@H](C5)N6)nc(OC[C@]56CCCN5[C@@H](COC(=O)N(C)C)CC6)nc4c3F)c12 [Example 439, ((3R,7aR)-7a-(((4-((1R,5S)-3,8-diazabicyclo[3.2.1]octan-3-yl)-7-(8-ethynyl-7-fluoronaphthalen-1-yl)-8-fluoropyrido[4,3-d]pyrimidin-2-yl)oxy)methyl)hexahydro-1H-pyrrolizin-3-yl)methyl dimethylcarbamate] | 0.0128 |
| Oc1cc(-c2ncc3c(N4C[C@H]5CC[C@@H](C4)N5)nc(OC[C@@]45CCCN4C[C@H](F)C5)nc3c2F)c2c(F)c(F)ccc2c1 [Example 246, 4-(4-((1R,5S)-3,8-diazabicyclo[3.2.1]octan-3-yl)-8-fluoro-2-(((2R,7aS)-2-fluorohexahydro-1H-pyrrolizin-7a-yl)methoxy)pyrido[4,3-d]pyrimidin-7-yl)-5,6-difluoronaphthalen-2-ol] | 0.001 |
| Cc1c(-c2cc(O)cc3ccccc23)ncc2c(N3C[C@H]4CC[C@@H](C3)N4)nc(OC[C@@H]3CCCN3C)nc12 [Example 190, 4-(4-((1R,5S)-3,8-diazabicyclo[3.2.1]octan-3-yl)-8-methyl-2-(((S)-1-methylpyrrolidin-2-yl)methoxy)pyrido[4,3-d]pyrimidin-7-yl)naphthalen-2-ol] | 16.3 |
| C#Cc1cccc2cncc(-c3ncc4c(N5C[C@H]6CC[C@@H](C5)N6)nc(OC[C@]56CCCN5C[C@@H](F)C6)nc4c3F)c12 [Example 204, 4-((1R,5S)-3,8-diazabicyclo[3.2.1]octan-3-yl)-7-(5-ethynylisoquinolin-4-yl)-8-fluoro-2-(((2S,7aR)-2-fluorotetrahydro-1H-pyrrolizin-7a(5H)-yl)methoxy)pyrido[4,3-d]pyrimidine] | 0.307 |
| Nc1nc(N2CC3CCC(C2)N3)c2cnc(-c3cc(O)cc4ccccc34)c(F)c2n1 [Example 182, 4-[2-amino-4-(3,8-diazabicyclo[3.2.1]octan-3-yl)-8-fluoro-pyrido[4,3-d]pyrimidin-7-yl]naphthalen-2-ol] | 13.5 |
| C#Cc1cccc2cc(O)cc(-c3ncc4c(N5C[C@H]6CC[C@@H](C5)N6)ncnc4c3F)c12 [Example 244, 4-(4-((1R,5S)-3,8-diazabicyclo[3.2.1]octan-3-yl)-8-fluoropyrido[4,3-d]pyrimidin-7-yl)-5-ethynylnaphthalen-2-ol] | 0.763 |
| Oc1cc(-c2ncc3c(N4C[C@H]5CC[C@@H](C4)N5)nc(OCCc4cccnc4)nc3c2F)c2ccccc2c1 [Example 106, 4-(4-((1R,5S)-3,8-diazabicyclo[3.2.1]octan-3-yl)-8-fluoro-2-(2-(pyridin-3-yl)ethoxy)pyrido[4,3-d]pyrimidin-7-yl)naphthalen-2-ol] | 3.1 |
| CN1C[C@H](NC(=O)c2cccc(S(=O)(=O)F)c2)C[C@H]1COc1nc(N2C[C@H]3CC[C@@H](C2)N3)c2cnc(-c3cccc4cccc(Cl)c34)c(F)c2n1 [Example 211, 3-(((3R,5S)-5-(((4-((1R,5S)-3,8-diazabicyclo[3.2.1]octan-3-yl)-7-(8-chloronaphthalen-1-yl)-8-fluoropyrido[4,3-d]pyrimidin-2-yl)oxy)methyl)-1-methylpyrrolidin-3-yl)carbamoyl)benzenesulfonyl fluoride tris(2,2,2-trifluoroacetate)] | 13.5 |
| OCC(CO)COc1nc(N2C[C@H]3CC[C@@H](C2)N3)c2cnc(-c3cccc4cccc(Cl)c34)c(F)c2n1 [Example 35, 2-(((4-((1R,5S)-3,8-diazabicyclo[3.2.1]octan-3-yl)-7-(8-chloronaphthalen-1-yl)-8-fluoropyrido[4,3-d]pyrimidin-2-yl)oxy)methyl)propane-1,3-diol] | 11.3 |
| CO[C@H]1CN2CCC[C@]2(COc2nc(N3CC4CCC(C3)N4)c3cnc(-c4cc(O)cc5cccc(F)c45)c(F)c3n2)C1 (stereo in doubt) [Example 406, 4-(4-((1R,5S)-3,8-diazabicyclo[3.2.1]octan-3-yl)-8-fluoro-2-((2-methoxytetrahydro-1H-pyrrolizin-7a(5H)-yl)methoxy)pyrido[4,3-d]pyrimidin-7-yl)-5-fluoronaphthalen-2-ol] | 0.44 |
| CC#Cc1cccc2cccc(-c3ncc4c(N5C[C@H]6CC[C@@H](C5)N6)nc(OCC56CCCN5CCC6)nc4c3F)c12 [Example 195, 4-((1R,5S)-3,8-diazabicyclo[3.2.1]octan-3-yl)-8-fluoro-7-(8-(prop-1-yn-1-yl)naphthalen-1-yl)-2-((tetrahydro-1H-pyrrolizin-7a(5H)-yl)methoxy)pyrido[4,3-d]pyrimidine] | 2.46 |
| Oc1cc(-c2ncc3c(N4CC5CCC(C4)N5)nc(OCC45CCCN4C(CF)CC5)nc3c2F)c2ccccc2c1 (mixture of isomers) [Example 384, 4-(4-((1R,5S)-3,8-diazabicyclo[3.2.1]octan-3-yl)-8-fluoro-2-((3-(fluoromethyl)tetrahydro-1H-pyrrolizin-7a(5H)-yl)methoxy)pyrido[4,3-d]pyrimidin-7-yl)naphthalen-2-ol (mixture of isomers)] | 0.398 |
| CC(=O)N1CCC(Oc2nc(N3C[C@H]4CC[C@@H](C3)N4)c3cnc(-c4cc(O)cc5ccccc45)c(F)c3n2)CC1 [Example 78, 1-(4-((4-((1R,5S)-3,8-diazabicyclo[3.2.1]octan-3-yl)-8-fluoro-7-(3-hydroxynaphthalen-1-yl)pyrido[4,3-d]pyrimidin-2-yl)oxy)piperidin-1-yl)ethan-1-one] | > 16.7 |
| Fc1c(-c2ccccc2C2CC2)ncc2c(N3C[C@H]4CC[C@@H](C3)N4)nc(OCC34CCCN3CCC4)nc12 [Example 297, 4-((1R,5S)-3,8-diazabicyclo[3.2.1]octan-3-yl)-7-(2-cyclopropylphenyl)-8-fluoro-2-((hexahydro-1H-pyrrolizin-7a-yl)methoxy)pyrido[4,3-d]pyrimidine] | 6.56 |
| Cn1ccnc1CCOc1nc(N2C[C@H]3CC[C@@H](C2)N3)c2cnc(-c3cc(O)cc4ccccc34)c(F)c2n1 [Example 3, 4-(4-((1R,5S)-3,8-diazabicyclo[3.2.1]octan-3-yl)-8-fluoro-2-(2-(1-methyl-1H-imidazol-2-yl)ethoxy)pyrido[4,3-d]pyrimidin-7-yl)naphthalen-2-ol] | 10.3 |
| CN1CCC[C@H]1COc1nc(N2CC3CCC(C(N)=O)(C2)N3)c2cnc(-c3cc(O)cc4ccccc34)c(F)c2n1 (stereo partly drawn) [Example 159, 3-(8-fluoro-7-(3-hydroxynaphthalen-1-yl)-2-(((S)-1-methylpyrrolidin-2-yl)methoxy)pyrido[4,3-d]pyrimidin-4-yl)-3,8-diazabicyclo[3.2.1]octane-1-carboxamide bis(2,2,2-trifluoroacetate)] | > 16.7 |
| CNc1nc(N2CC3CCC(C2)N3)c2cnc(-c3cc(O)cc4ccccc34)c(F)c2n1 [Example 183, 4-[4-(3,8-diazabicyclo[3.2.1]octan-3-yl)-8-fluoro-2-(methylamino)pyrido[4,3-d]pyrimidin-7-yl]naphthalen-2-ol] | 5.25 |
| CO[C@@H]1C[C@@H](COc2nc(N3C[C@H]4CC[C@@H](C3)N4)c3cnc(-c4cc(O)cc5ccccc45)c(F)c3n2)N(C)C1 [Example 42, 4-(4-((1R,5S)-3,8-diazabicyclo[3.2.1]octan-3-yl)-8-fluoro-2-(((2S,4R)-4-methoxy-1-methylpyrrolidin-2-yl)methoxy)pyrido[4,3-d]pyrimidin-7-yl)naphthalen-2-ol] | 0.638 |
